Reference: US20210300936A1, “PYRAZOLOTRIAZOLOPYRIMIDINE DERIVATIVES AS A2A RECEPTOR ANTAGONIST” (BEIGENE, LTD., priority 2018, published 2021)
pIC50: −log10 of the molar value.

These compounds were tested against human A2A receptor (A2AR) (Homo sapiens, UniProt P29274) (assay: Luciferase reporter assay (HEK293-A2AR-luc2p/CRE/Hygro cells, 3 nM CGS21680)). Settings: 3 nM CGS21680, 5 h incubation.
Format: cell-based
Method in brief: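 Antagonist (0.1–10000 nM) and 3 nM CGS21680 were co-added for 5 h to stable HEK293-A2AR-luc2p/CRE cells, 18 h after seeding in 1% FBS medium containing adenosine deaminase. Luminescence was normalized to agonist alone (100%), and IC50 came from the dose–inhibition curve.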

human A2A receptor (A2AR), sequence (P29274 whole entry): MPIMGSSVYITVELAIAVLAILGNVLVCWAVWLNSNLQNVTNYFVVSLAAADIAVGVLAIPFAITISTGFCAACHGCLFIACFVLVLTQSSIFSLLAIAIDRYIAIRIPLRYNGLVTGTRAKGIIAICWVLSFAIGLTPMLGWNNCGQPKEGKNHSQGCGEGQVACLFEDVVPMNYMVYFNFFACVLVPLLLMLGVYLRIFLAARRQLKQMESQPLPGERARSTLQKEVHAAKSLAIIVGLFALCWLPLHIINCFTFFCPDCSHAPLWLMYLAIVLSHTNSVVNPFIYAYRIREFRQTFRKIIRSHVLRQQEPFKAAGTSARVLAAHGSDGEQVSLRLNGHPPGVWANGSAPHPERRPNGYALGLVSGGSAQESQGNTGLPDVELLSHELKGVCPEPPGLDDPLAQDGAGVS

SMILES	pIC50
COCCOc1ccc(N2CCN(C(=O)C(C)(c3ccccc3)n3ncc4c3nc(N)n3nc(-c5ccco5)nc43)C[C@H]2C)cc1 (stereo partly drawn) [Compound A73, 2-(5-amino-2-(furan-2-yl)-7H-pyrazolo[4,3-e][1,2,4]triazolo[1,5-c]pyrimidin-7-yl)-1-((R)-4-(4-(2-methoxyethoxy)phenyl)-3-methylpiperazin-1-yl)-2-phenylpropan-1-one]	7.81
COCCOc1ccc(N2CCN(C(=O)C(C)(c3ccccc3)n3ncc4c3nc(N)n3nc(-c5ccco5)nc43)C[C@@H]2C)cc1 (stereo partly drawn) [Compound A74, 2-(5-amino-2-(furan-2-yl)-7H-pyrazolo[4,3-e][1,2,4]triazolo[1,5-c]pyrimidin-7-yl)-1-((S)-4-(4-(2-methoxyethoxy)phenyl)-3-methylpiperazin-1-yl)-2-phenylpropan-1-one]	8.29
COCCOc1ccc(N2CCN(C(=O)C(C)(c3cccc(C)c3)n3ncc4c3nc(N)n3nc(-c5ccco5)nc43)CC2)cc1 (stereo not drawn) [Compound A75, 2-(5-amino-2-(furan-2-yl)-7H-pyrazolo[4,3-e][1,2,4]triazolo[1,5-c]pyrimidin-7-yl)-1-(4-(4-(2-methoxyethoxy)phenyl)piperazin-1-yl)-2-(m-tolyl)propan-1-one]	8.19
CC(C(=O)N1CCN(c2ccc(OCCCN3CCOCC3)cc2)CC1)(c1ccccc1)n1ncc2c1nc(N)n1nc(-c3ccco3)nc21 (stereo not drawn) [Compound A76, 2-(5-amino-2-(furan-2-yl)-7H-pyrazolo[4,3-e][1,2,4]triazolo[1,5-c]pyrimidin-7-yl)-1-(4-(4-(3-morpholinopropoxy)phenyl)piperazin-1-yl)-2-phenylpropan-1-one]	8.14
C[C@@](C(=O)N1CCN(c2ccc(OCCCN3CCOCC3)cc2)CC1)(c1ccccc1)n1ncc2c1nc(N)n1nc(-c3ccco3)nc21 [Compound A76a, (S)-2-(5-amino-2-(furan-2-yl)-7H-pyrazolo[4,3-e][1,2,4]triazolo[1,5-c]pyrimidin-7-yl)-1-(4-(4-(3-morpholinopropoxy)phenyl)piperazin-1-yl)-2-phenylpropan-1-one]	7.72
C[C@](C(=O)N1CCN(c2ccc(OCCCN3CCOCC3)cc2)CC1)(c1ccccc1)n1ncc2c1nc(N)n1nc(-c3ccco3)nc21 [Compound A76b, (R)-2-(5-amino-2-(furan-2-yl)-7H-pyrazolo[4,3-e][1,2,4]triazolo[1,5-c]pyrimidin-7-yl)-1-(4-(4-(3-morpholinopropoxy)phenyl)piperazin-1-yl)-2-phenylpropan-1-one]	8.41
COc1cccc(N2CCN(C(=O)C(C)(c3ccccc3)n3ncc4c3nc(N)n3nc(-c5ccco5)nc43)CC2)c1 (stereo not drawn) [Compound A77, 2-(5-amino-2-(furan-2-yl)-7H-pyrazolo[4,3-e][1,2,4]triazolo[1,5-c]pyrimidin-7-yl)-1-(4-(3-methoxyphenyl)piperazin-1-yl)-2-phenylpropan-1-one]	8.38
COc1ccccc1N1CCN(C(=O)C(C)(c2ccccc2)n2ncc3c2nc(N)n2nc(-c4ccco4)nc32)CC1 (stereo not drawn) [Compound A78, 2-(5-amino-2-(furan-2-yl)-7H-pyrazolo[4,3-e][1,2,4]triazolo[1,5-c]pyrimidin-7-yl)-1-(4-(2-methoxyphenyl)piperazin-1-yl)-2-phenylpropan-1-one]	8.21
CC(C(=O)N1CCN(c2ccc(OCCCN3CCCC3)cc2)CC1)(c1ccccc1)n1ncc2c1nc(N)n1nc(-c3ccco3)nc21 (stereo not drawn) [Compound A79, 2-(5-amino-2-(furan-2-yl)-7H-pyrazolo[4,3-e][1,2,4]triazolo[1,5-c]pyrimidin-7-yl)-2-phenyl-1-(4-(4-(3-(pyrrolidin-1-yl)propoxy)phenyl)piperazin-1-yl)propan-1-one]	8.15
C[C@@](C(=O)N1CCN(c2ccc(OCCCN3CCCC3)cc2)CC1)(c1ccccc1)n1ncc2c1nc(N)n1nc(-c3ccco3)nc21 [Compound A79a, (S)-2-(5-amino-2-(furan-2-yl)-7H-pyrazolo[4,3-e][1,2,4]triazolo[1,5-c]pyrimidin-7-yl)-2-phenyl-1-(4-(4-(3-(pyrrolidin-1-yl)propoxy)phenyl)piperazin-1-yl)propan-1-one]	7.67
C[C@](C(=O)N1CCN(c2ccc(OCCCN3CCCC3)cc2)CC1)(c1ccccc1)n1ncc2c1nc(N)n1nc(-c3ccco3)nc21 [Compound A79b, (R)-2-(5-amino-2-(furan-2-yl)-7H-pyrazolo[4,3-e][1,2,4]triazolo[1,5-c]pyrimidin-7-yl)-2-phenyl-1-(4-(4-(3-(pyrrolidin-1-yl)propoxy)phenyl)piperazin-1-yl)propan-1-one]	8.17
CC(C(=O)N1CCN(c2ccc(OCCN3CCOCC3)cc2)CC1)(c1ccccc1)n1ncc2c1nc(N)n1nc(-c3ccco3)nc21 (stereo not drawn) [Compound A80, 2-(5-amino-2-(furan-2-yl)-7H-pyrazolo[4,3-e][1,2,4]triazolo[1,5-c]pyrimidin-7-yl)-1-(4-(4-(2-morpholinoethoxy)phenyl)piperazin-1-yl)-2-phenylpropan-1-one]	8.37
C[C@@](C(=O)N1CCN(c2ccc(OCCN3CCOCC3)cc2)CC1)(c1ccccc1)n1ncc2c1nc(N)n1nc(-c3ccco3)nc21 [Compound A80a, (S)-2-(5-amino-2-(furan-2-yl)-7H-pyrazolo[4,3-e][1,2,4]triazolo[1,5-c]pyrimidin-7-yl)-1-(4-(4-(2-morpholinoethoxy)phenyl)piperazin-1-yl)-2-phenylpropan-1-one]	8.13
C[C@](C(=O)N1CCN(c2ccc(OCCN3CCOCC3)cc2)CC1)(c1ccccc1)n1ncc2c1nc(N)n1nc(-c3ccco3)nc21 [Compound A80b, (R)-2-(5-amino-2-(furan-2-yl)-7H-pyrazolo[4,3-e][1,2,4]triazolo[1,5-c]pyrimidin-7-yl)-1-(4-(4-(2-morpholinoethoxy)phenyl)piperazin-1-yl)-2-phenylpropan-1-one]	8.55
CN1CCN(CCOc2ccc(N3CCN(C(=O)C(C)(c4ccccc4)n4ncc5c4nc(N)n4nc(-c6ccco6)nc54)CC3)cc2)CC1 (stereo not drawn) [Compound A81, 2-(5-amino-2-(furan-2-yl)-7H-pyrazolo[4,3-e][1,2,4]triazolo[1,5-c]pyrimidin-7-yl)-1-(4-(4-(2-(4-methylpiperazin-1-yl)ethoxy)phenyl)piperazin-1-yl)-2-phenylpropan-1-one]	8.33
CN1CCN(CCOc2ccc(N3CCN(C(=O)[C@](C)(c4ccccc4)n4ncc5c4nc(N)n4nc(-c6ccco6)nc54)CC3)cc2)CC1 [Compound A81a, (S)-2-(5-amino-2-(furan-2-yl)-7H-pyrazolo[4,3-e][1,2,4]triazolo[1,5-c]pyrimidin-7-yl)-1-(4-(4-(2-(4-methylpiperazin-1-yl)ethoxy)phenyl)piperazin-1-yl)-2-phenylpropan-1-one]	8.10
CN1CCN(CCOc2ccc(N3CCN(C(=O)[C@@](C)(c4ccccc4)n4ncc5c4nc(N)n4nc(-c6ccco6)nc54)CC3)cc2)CC1 [Compound A81b, (R)-2-(5-amino-2-(furan-2-yl)-7H-pyrazolo[4,3-e][1,2,4]triazolo[1,5-c]pyrimidin-7-yl)-1-(4-(4-(2-(4-methylpiperazin-1-yl)ethoxy)phenyl)piperazin-1-yl)-2-phenylpropan-1-one]	8.59
CN1CCN(CCCOc2ccc(N3CCN(C(=O)C(C)(c4ccccc4)n4ncc5c4nc(N)n4nc(-c6ccco6)nc54)CC3)cc2)CC1 (stereo not drawn) [Compound A82, 2-(5-amino-2-(furan-2-yl)-7H-pyrazolo[4,3-e][1,2,4]triazolo[1,5-c]pyrimidin-7-yl)-1-(4-(4-(3-(4-methylpiperazin-1-yl)propoxy)phenyl)piperazin-1-yl)-2-phenylpropan-1-one]	8.15
CN1CCN(CCCOc2ccc(N3CCN(C(=O)[C@](C)(c4ccccc4)n4ncc5c4nc(N)n4nc(-c6ccco6)nc54)CC3)cc2)CC1 [Compound A82a, (S)-2-(5-amino-2-(furan-2-yl)-7H-pyrazolo[4,3-e][1,2,4]triazolo[1,5-c]pyrimidin-7-yl)-1-(4-(4-(3-(4-methylpiperazin-1-yl)propoxy)phenyl)piperazin-1-yl)-2-phenylpropan-1-one]	7.91
CN1CCN(CCCOc2ccc(N3CCN(C(=O)[C@@](C)(c4ccccc4)n4ncc5c4nc(N)n4nc(-c6ccco6)nc54)CC3)cc2)CC1 [Compound A82b, (R)-2-(5-amino-2-(furan-2-yl)-7H-pyrazolo[4,3-e][1,2,4]triazolo[1,5-c]pyrimidin-7-yl)-1-(4-(4-(3-(4-methylpiperazin-1-yl)propoxy)phenyl)piperazin-1-yl)-2-phenylpropan-1-one]	8.31
CC(C(=O)N1CCN(c2ccc(C(=O)NCC3(O)COC3)cc2)CC1)(c1ccccc1)n1ncc2c1nc(N)n1nc(-c3ccco3)nc21 (stereo not drawn) [Compound A83, 4-(4-(2-(5-amino-2-(furan-2-yl)-7H-pyrazolo[4,3-e][1,2,4]triazolo[1,5-c]pyrimidin-7-yl)-2-phenylpropanoyl)piperazin-1-yl)-N-((3-hydroxyoxetan-3-yl)methyl)benzamide]	8.43
CCC(C(=O)N1CCN(c2ccc(OCCOC)cc2)CC1)(c1ccccc1)n1ncc2c1nc(N)n1nc(-c3ccco3)nc21 (stereo not drawn) [Compound A84, 2-(5-amino-2-(furan-2-yl)-7H-pyrazolo[4,3-e][1,2,4]triazolo[1,5-c]pyrimidin-7-yl)-1-(4-(4-(2-methoxyethoxy)phenyl)piperazin-1-yl)-2-phenylbutan-1-one]	7.55
CC(C(=O)N1CCN(c2ccc(OCCCN3CCCCC3)cc2)CC1)(c1ccccc1)n1ncc2c1nc(N)n1nc(-c3ccco3)nc21 (stereo not drawn) [Compound A85, 2-(5-amino-2-(furan-2-yl)-7H-pyrazolo[4,3-e][1,2,4]triazolo[1,5-c]pyrimidin-7-yl)-2-phenyl-1-(4-(4-(3-(piperidin-1-yl)propoxy)phenyl)piperazin-1-yl)propan-1-one]	7.94
COCCOc1ccc(N2CCN(C(=O)C(C)(c3cccc(F)c3)n3ncc4c3nc(N)n3nc(-c5ccco5)nc43)CC2)cc1 (stereo not drawn) [Compound A86, 2-(5-amino-2-(furan-2-yl)-7H-pyrazolo[4,3-e][1,2,4]triazolo[1,5-c]pyrimidin-7-yl)-2-(3-fluorophenyl)-1-(4-(4-(2-methoxyethoxy)phenyl)piperazin-1-yl)propan-1-one]	8.17
